We go through 1 sequence from PMC10818749, “Toxicity Studies of Cardiac-Targeting Peptide Reveal a Robust Safety Profile” (Pharmaceutics, 2024).

Ends that are not written are not given here.

One data set addresses NAV1.5 (Homo sapiens, UniProt Q14524). Kind of data set: in vitro. It is filed as cell-based. Particulars: up to 30 µM. The method, then: (§1) Ion Channel Assays: Cell lines were grown, plated, and loaded with 1× loading buffer containing 1× dye and 2.5 mM freshly prepared probenecid. Assays were performed, and activity was measured using a FLIPR Tetra. Percent of activation and percent of inhibition were calculated to determine agonist and antagonist activity, respectively. […]
(§2) The KINOMEscan screening platform employs a novel and propri- Membrane Potential Assay etary active site-directed competition binding assay to quantitatively The FLIPR® Membrane Potential Assay Kit is used which utilizes a pro-measure interactions between test compounds and the kinases. prietary fluorescent indicator dye in combination with a quencher to This robust and reliable assay technology affords investigators the reflect real-time membrane potential changes associated with ion ability to extensively annotate compounds with accurate, precise channel activation and ion transporter proteins. […]
Compounds that bind the kinase active site and directly (sterically) be monitored within a single experiment. […]
Upon stimulation, […]
a quantitative, precise and ultra-sensitive qPCR method that detects the receptor signals release of intracellular calcium, which results in the associated DNA label (D). In a similar manner, dissociation con- an increase of dye fluorescence. […]
1. Compound activity was measured on a FLIPR Tetra (MDS). […]

The next data set has as its target hERG (Homo sapiens, UniProt Q12809). Kind of data set: in vitro. Particulars: up to 30 µM. It is filed as cell-based. How it is done:
as §1
The FLIPR Potassium Assay Kit from Molecular Devices is used. It exploits the permeability of thallium ions (Tl+) through both voltage-and ligand-gated potassium (K+) channels. A novel, highly-sensiti ve
Tl+ indicator dye is utilized which produces a bright fluorescent signal upon the binding to Tl+ conducted through potassium chan-nels. […]
KINOMEscan® Assay fluorescence for improved signal/noise ratio.
as §2

hERG, sequence (Q12809 whole entry): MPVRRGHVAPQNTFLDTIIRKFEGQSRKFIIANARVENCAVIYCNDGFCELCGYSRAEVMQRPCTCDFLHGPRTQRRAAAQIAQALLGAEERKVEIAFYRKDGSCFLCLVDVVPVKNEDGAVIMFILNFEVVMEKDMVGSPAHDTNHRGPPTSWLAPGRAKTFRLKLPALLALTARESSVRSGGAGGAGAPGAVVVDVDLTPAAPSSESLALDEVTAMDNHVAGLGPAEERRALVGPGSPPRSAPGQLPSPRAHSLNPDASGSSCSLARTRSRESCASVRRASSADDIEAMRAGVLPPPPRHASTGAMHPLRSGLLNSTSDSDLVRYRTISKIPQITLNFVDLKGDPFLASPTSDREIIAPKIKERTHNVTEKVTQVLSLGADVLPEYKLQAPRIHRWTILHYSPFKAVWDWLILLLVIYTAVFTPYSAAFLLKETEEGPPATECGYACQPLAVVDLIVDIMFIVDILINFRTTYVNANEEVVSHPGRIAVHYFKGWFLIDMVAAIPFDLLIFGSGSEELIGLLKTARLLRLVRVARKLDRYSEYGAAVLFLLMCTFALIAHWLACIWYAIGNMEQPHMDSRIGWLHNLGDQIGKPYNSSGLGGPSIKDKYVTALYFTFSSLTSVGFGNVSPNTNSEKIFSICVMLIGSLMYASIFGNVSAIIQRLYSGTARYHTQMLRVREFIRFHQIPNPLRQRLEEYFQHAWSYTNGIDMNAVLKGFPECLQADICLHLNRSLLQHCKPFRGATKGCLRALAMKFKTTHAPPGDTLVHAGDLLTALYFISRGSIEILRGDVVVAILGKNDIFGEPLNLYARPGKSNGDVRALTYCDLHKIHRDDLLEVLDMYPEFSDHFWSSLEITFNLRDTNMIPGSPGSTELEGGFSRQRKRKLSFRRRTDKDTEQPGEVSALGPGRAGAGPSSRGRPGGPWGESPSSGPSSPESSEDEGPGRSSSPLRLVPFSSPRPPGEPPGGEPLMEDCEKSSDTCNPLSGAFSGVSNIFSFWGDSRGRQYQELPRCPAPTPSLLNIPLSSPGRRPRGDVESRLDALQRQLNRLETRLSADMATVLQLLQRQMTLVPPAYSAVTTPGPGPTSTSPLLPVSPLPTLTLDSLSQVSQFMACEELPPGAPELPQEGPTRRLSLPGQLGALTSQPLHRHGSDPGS
NAV1.5, sequence (Q14524 whole entry): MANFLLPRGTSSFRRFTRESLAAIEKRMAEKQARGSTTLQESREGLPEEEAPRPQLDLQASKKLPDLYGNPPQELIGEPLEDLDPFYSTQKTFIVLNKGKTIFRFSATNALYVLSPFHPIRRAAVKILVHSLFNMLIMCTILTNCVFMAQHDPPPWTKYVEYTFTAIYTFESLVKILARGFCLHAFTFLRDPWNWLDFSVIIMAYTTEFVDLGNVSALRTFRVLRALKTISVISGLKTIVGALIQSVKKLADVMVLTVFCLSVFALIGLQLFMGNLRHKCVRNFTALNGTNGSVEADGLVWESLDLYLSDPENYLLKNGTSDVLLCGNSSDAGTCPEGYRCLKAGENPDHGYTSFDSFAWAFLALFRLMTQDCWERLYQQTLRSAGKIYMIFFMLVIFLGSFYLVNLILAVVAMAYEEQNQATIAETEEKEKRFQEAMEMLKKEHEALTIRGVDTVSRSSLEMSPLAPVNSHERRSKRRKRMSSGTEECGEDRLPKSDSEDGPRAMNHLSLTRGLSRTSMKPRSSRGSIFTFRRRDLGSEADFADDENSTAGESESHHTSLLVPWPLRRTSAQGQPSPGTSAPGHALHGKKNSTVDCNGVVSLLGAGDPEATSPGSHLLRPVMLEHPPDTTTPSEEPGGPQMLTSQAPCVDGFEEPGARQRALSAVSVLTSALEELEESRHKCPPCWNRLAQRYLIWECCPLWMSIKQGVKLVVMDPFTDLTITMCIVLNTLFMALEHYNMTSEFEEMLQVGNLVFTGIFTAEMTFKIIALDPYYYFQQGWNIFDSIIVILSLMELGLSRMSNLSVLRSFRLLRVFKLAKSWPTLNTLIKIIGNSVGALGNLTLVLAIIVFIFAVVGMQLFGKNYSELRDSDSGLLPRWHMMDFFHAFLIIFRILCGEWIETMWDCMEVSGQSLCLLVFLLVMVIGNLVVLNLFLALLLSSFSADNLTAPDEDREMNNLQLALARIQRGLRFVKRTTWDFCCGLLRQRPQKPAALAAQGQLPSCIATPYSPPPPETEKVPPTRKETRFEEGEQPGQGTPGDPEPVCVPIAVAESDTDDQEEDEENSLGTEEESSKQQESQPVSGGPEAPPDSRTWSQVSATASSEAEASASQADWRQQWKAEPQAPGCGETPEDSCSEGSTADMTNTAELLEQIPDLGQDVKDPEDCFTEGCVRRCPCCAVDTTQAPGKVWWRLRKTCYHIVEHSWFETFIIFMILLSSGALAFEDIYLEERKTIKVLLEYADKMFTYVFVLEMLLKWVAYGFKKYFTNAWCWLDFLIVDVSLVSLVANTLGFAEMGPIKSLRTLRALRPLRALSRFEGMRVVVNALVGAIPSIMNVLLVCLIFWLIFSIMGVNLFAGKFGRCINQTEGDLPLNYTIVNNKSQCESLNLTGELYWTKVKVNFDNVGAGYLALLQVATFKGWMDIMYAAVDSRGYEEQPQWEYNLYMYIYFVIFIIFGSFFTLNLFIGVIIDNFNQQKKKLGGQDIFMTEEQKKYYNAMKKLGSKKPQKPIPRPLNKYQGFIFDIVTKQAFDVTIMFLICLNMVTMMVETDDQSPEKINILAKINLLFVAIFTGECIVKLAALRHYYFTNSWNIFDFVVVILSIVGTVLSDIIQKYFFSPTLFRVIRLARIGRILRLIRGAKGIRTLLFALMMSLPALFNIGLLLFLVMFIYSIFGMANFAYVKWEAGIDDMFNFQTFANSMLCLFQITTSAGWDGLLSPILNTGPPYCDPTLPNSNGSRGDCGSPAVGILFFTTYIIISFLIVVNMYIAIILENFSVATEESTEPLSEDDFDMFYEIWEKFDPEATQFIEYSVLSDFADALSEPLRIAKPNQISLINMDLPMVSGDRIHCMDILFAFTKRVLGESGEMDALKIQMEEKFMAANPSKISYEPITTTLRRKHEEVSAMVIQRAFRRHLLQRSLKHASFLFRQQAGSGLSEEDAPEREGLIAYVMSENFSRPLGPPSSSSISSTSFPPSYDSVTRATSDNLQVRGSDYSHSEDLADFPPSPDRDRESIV

For the sequence APWHLSSQYSRT [CTP], the blocking or activation result at NAV1.5 (SAFETYscan ion channel assay) and on hERG (SAFETYscan ion channel assay) was “no significant blocking or activation” throughout. Further, the IC50 is more than 30 µM on NAV1.5 (blocker, FLIPR Tetra, read-out: RC50 (the source's name)) and more than 30 µM at hERG (human, blocker, FLIPR Tetra, read-out: RC50 (the source's name)).
